According to patent US20100008894A1, “Process of Screening a Molecule as a Candidate Drug for the Treatment of Bipolar Disorder” (Institute pasteur, priority 2005, published 2010):

Tests used:
[1] = target: NM23-H2 (Homo sapiens, UniProt P22392); details: cited from earlier work
[2] = target: T1, Orn (Escherichia coli, UniProt P0A784); assay: Orn activity assay (degradation of RNA-oligo 5mer); format: biochemical, E. coli; details: 10 μM inhibitor; 3 μM 5′Cy5-CCCCC3′ RNA
T1 construct: made in house; host or cells: E. coli MG1655 carrying pUM408, arabinose-induced
Protocol: Custome made RNA-oligo 5mers (5′Cy5-CCCCC3′), obtained from Proligo, were used as substrate for in vitro activity assays. 30 μl reactions containing 50 mM HEPES pH 7.5, 5 mM MnCl2, 3 μM substrate RNA and 0.1 μg oligoribonuclease were incubated at 37° C., and reactions were initiated by adding substrate. Inhibitors were added as indicated in the text. At intervals, 5 μl reaction aliquots were taken and stopped by adding an equal volume of sample buffer (95% formamide, 20 mM EDTA, 0.1% bromphenol blue) and frozen at −20° C. For analysis of the reaction products, samples were heated at 80° C. for 3 minutes and 2.5 μl was applied to PAGE on a 22% SDS-PAA gel containing 2×TBE and run in 2×TBE. Fluorescent RNA oligos were visualized using a Molecular Dynamics STORM 860 in 650-nm long-pass filter mode.
Given the strong affinity of Orn for pAp, it was investigated whether pAp affects Orn activity. […] Those small RNA-oligos are called here nanoRNAs, in order to distinguish them from microRNAs, which have become a subject of extensive studies in the last several years. RNA-oligo 5-mers (5′-CCCCC-3′) labeled at their 5′-phosphate end with the sulfoindocyanine succinimidyl ester cyanine 5 (Cy5) were therefore used as substrate for in vitro assays with purified recombinant Orn. […]

[3] = target: T2, CysQ (Escherichia coli, UniProt P22255); assay: pAp/AMP-binding assay with recombinant CysQ; design: species or system E. coli; details: 15 μg protein, 5 μl agarose
T2 construct: made in house; host or cells: E. coli MG1655 carrying pUM404, arabinose-induced
Protocol: (§1) 30 μl samples containing 15 μg of Orn-His or CysQ-His in pAp-agarose buffer containing 100 mM NaCl were incubated with 5 μl of prewashed pAp- or AMP-agarose by rotating for 1 hour at 4° C. in durapore spin columns (Millipore). Beads were removed by centrifugation, and 5 μl of the unbound fraction, designated flow through was measured for protein content using Bio-Rad protein assay. The fraction bound to the beads was eluted by the addition of 40 μl of hot SDS-sample buffer and incubation for 15 minutes at 65° C.
(§2) Orn is an essential protein in E. coli involved in mRNA degradation. It has 3′ to 5′ exoribonuclease activity selectively active on short ribonucleotides. 5′adenosine monophosphate (AMP) is known to inhibit Orn (Datta & Niyogi, 1975). It was therefore important to compare binding of Orn to AMP and pAp. To this end recombinant Orn has been purified and its binding was measured to equal amounts of pAp- or AMP-agarose, both affinity substrates with identical binding capacities, CysQ was included as a positive control. Similar experiments were done with cell free extracts from strains overexpressing Orn or CysQ. […] Furthermore, significant amounts of Orn, roughly one third, but not CysQ bind to AMP-agarose. […]

[4] = target: T1, Orn; assay: pAp/AMP-binding assay with recombinant Orn; design: species or system E. coli; details: 15 μg protein, 5 μl agarose
Protocol: as §1, §2

[5] = target: T2, CysQ; format: biochemical, E. coli
[6] = target: T3, Sfn (Homo sapiens, UniProt Q9Y3B8); assay: Sfn-catalyzed degradation of oligo DNA; format: biochemical; details: 50 μM pAp; DNA oligo 5mer
T3 construct: His tag; made in house
T3 sequence (Q9Y3B8 26-237): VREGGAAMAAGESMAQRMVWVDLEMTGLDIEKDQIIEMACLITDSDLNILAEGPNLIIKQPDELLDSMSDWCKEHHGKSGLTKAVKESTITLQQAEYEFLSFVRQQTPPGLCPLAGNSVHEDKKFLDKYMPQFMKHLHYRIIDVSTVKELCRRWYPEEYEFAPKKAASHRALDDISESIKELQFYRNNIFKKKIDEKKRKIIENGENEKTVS
Protocol: FIG. 10: Sensitivity of Sfn-catalyzed degradation of oligo DNA to pAp. Shown is the quantification of the distribution of reaction products that were separated on 22% PAA gels. Reactions included 3 μg Sfn and 3 μM of DNA oligo 5mer (5′Cy5-CCCCC3′). Reactions were started by the addition of enzyme. 50 μM pAp was present where indicated. Closed circle: 5mer, open circle: 4mer, closed triangle: 3mer, open triangle: 2mer. Monomers could not be included into this calculation due to their inability to enter the gel.

[7] = target: T4, PARP (Homo sapiens, UniProt P09874); assay: Colorimetric PARP assay from Trevigen; format: biochemical; details: 1 μM pAp, in vitro
T4 construct: purchased Trevigen
Source text: The Inventors plan to verify this effect using an independent method, as they are not certain the effect that can be observed with the kit they used for this experiment (Colorimetric PARP assay from Trevigen) is independent of the nature of the inhibitor, as it seems that the phenomenon of self-inhibition of PARP due to auto modification has an important impact on the result. They plan therefore to measure PARP activity in-vitro in the presence or absence of pAp according to J. C. Ame using ^32P-NAD.

[8] = target: T3, Sfn; assay: Sfn-catalyzed degradation of oligo RNA; format: biochemical
Protocol: FIG. 9: Sensitivity of Sfn-catalyzed degradation of oligo RNA to pAp. Shown is the quantification of the distribution of reaction products that were separated on 22% PAA gels. Reactions included 0.5 μg Sfn and 3 μM of RNA oligo 5mer (5′Cy5-CCCCC3′). Reactions were started by the addition of enzyme. 20 μM or 50 μM pAp was present where indicated. Closed circle: 5mer, open circle: 4mer, closed triangle: 3mer, open triangle: 2mer, square: 1mer.
The term nanoRNA has been introduced to describe these extremely short RNA oligos. The Inventors have purified His-tagged Sfn in order to evaluate its sensitivity to pAp in-vitro. Inhibition of Sfn-catalyzed degradation of nanoRNA was tested at two concentrations of the inhibitor, 20 and 50 μM.

T1 sequence (P0A784 whole entry): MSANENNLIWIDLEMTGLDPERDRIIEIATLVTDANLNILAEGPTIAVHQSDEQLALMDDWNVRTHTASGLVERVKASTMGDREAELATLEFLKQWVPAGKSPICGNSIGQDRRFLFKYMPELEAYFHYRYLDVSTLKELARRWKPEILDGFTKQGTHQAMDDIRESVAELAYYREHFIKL
T2 sequence (P22255 whole entry): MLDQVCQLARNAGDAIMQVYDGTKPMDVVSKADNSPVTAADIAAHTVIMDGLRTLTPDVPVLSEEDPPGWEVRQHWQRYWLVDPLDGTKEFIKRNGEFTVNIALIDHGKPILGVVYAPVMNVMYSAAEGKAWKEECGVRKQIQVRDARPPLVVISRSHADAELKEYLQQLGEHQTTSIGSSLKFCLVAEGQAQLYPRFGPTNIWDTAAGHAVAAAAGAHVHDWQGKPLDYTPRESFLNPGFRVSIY
NM23-H2, sequence (P22392 whole entry): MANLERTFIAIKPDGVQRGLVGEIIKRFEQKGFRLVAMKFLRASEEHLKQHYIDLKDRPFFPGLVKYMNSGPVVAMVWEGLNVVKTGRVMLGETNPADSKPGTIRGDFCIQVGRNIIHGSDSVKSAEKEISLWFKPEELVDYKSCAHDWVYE
T4 sequence (P09874 whole entry): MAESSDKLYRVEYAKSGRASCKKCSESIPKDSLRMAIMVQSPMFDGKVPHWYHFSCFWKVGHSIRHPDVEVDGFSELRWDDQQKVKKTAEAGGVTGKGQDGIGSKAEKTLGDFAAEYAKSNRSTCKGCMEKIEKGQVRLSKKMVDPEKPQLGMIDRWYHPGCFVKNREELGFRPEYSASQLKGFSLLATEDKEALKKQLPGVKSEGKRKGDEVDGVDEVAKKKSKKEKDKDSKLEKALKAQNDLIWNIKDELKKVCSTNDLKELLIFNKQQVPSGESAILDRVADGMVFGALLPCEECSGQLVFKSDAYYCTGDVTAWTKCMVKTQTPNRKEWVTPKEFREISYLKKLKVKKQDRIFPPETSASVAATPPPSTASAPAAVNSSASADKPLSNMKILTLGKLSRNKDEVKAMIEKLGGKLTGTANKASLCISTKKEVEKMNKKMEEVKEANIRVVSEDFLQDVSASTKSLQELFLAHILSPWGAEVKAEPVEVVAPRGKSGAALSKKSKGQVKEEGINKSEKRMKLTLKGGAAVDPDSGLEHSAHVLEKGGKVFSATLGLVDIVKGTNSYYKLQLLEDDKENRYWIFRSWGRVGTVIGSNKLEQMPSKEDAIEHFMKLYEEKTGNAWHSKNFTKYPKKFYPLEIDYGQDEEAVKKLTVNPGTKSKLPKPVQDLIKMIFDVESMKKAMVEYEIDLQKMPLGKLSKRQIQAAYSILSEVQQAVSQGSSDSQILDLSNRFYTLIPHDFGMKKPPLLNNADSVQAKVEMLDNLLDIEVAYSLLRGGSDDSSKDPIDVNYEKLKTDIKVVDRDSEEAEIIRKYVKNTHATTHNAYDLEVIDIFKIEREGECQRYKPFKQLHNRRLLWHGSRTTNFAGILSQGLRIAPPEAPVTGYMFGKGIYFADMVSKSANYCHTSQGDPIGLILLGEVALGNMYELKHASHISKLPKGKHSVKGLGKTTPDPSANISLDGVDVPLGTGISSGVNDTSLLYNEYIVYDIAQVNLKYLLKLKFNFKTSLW

Nc1ncnc2c1ncn2[C@@H]1O[C@H](COP(=O)(O)OP(=O)(O)O)[C@@H](O)[C@H]1O [ADP]
inhibition of the cleavage reaction (yes/no) [1]: not

Nc1ncnc2c1ncn2[C@@H]1O[C@H](COP(=O)(O)O)[C@@H](O)[C@H]1O [AMP, 5′adenosine monophosphate]
inhibition of degradation of nanoRNA by Orn [2]: inhibiting | binding of CysQ to nucleotide-agarose [3]: not | binding of Orn to nucleotide-agarose [4]: roughly one third

Nc1ncnc2c1ncn2[C@@H]1O[C@H](COP(=O)(O)OP(=O)(O)OP(=O)(O)O)[C@@H](O)[C@H]1O [ATP]
inhibition of the cleavage reaction ([1]; 0.5 mM): 50%

[Ca+2].[Cl-].[Cl-] [CaCl2]
inhibition of CysQ ([5]; 2 mM CaCl2, in the presence of 200 mM NaCl): complete inhibition

Nc1ncnc2c1ncn2[C@@H]1O[C@H](COP(=O)(O)O)[C@@H](OP(=O)(O)O)[C@H]1O [pAp, 3′-phosphoadenosine 5′-phosphate]
inhibition of degradation of nanoRNA by Orn [2]: significantly more pronounced | sensitivity of Sfn-catalyzed degradation of DNA oligos [6]: highly sensitive | PARP activity [7]: 60% | binding of CysQ to nucleotide-agarose [3]: almost quantitatively | inhibition of Sfn-catalyzed degradation of nanoRNA ([8]; 20 μM pAp): Significant inhibition | inhibition of Sfn-catalyzed degradation of nanoRNA ([8]; 50 μM pAp): increasing inhibition | binding of Orn to nucleotide-agarose [4]: almost quantitatively

[Cl-].[Na+] [sodium, NaCl]
inhibition of CysQ by sodium ([5]; physiological concentrations, 200 mM NaCl): not inhibitory
